This series deals with P. falciparum malaria. The experiment in a line: Phase 1/2 open-label imatinib monotherapy trial vs standard-of-care (SOC). It counts as in vivo, human. The method, then:
Generic imatinib mesylate was purchased from TEVA Pharmaceuticals (Jerusalem, Israel) and was provided to patients in two 200 mg tablets per dose to conform with the usual quantity of imatinib indicated for treatment of chronic myelogenous leukemia. CV-Artecan, the standard-of-care (SOC) for treatment of P. falciparum malaria in Vietnam was purchased from OPC Pharmaceutical (Ho Chi Minh City, Vietnam) and was administered to patients as a tablet containing 40 mg dihydroartemisinin plus 320 mg piperaquine phosphate.
P. falciparum-infected males of age 16-55 years with no complicating co-morbidities that had not received an anti-malarial drug within the previous 4 weeks were eligible for two trials, i.e., imatinib monotherapy and imatinib plus SOC (Im+SOC) triple combination therapy. Those individuals who met eligibility criteria and provided informed written consent were enrolled in the trial.
The phase 1/2 “imatinib monotherapy trial” was an open-label trial aimed at determining the safety and tolerability of imatinib in adult male patients with uncomplicated P. falciparum malaria. Patients were randomly assigned to either a standard-of-care (SOC) control arm (n=8) in which they received 40 mg dihydroartemisinin plus 320 mg piperaquine phosphate orally twice (12 hours apart) on the first day and then once a day on the following 2 days, or an imatinib monotherapy arm (n=7) in which they received 400 mg of imatinib mesylate orally with a meal and full glass of water once a day for five days.
During both trials, patient temperatures and peripheral blood parasite levels were monitored before, during and after the trial on days 0, 1, 2, 3, 5, 7, 28, and 42. Patients were also examined for the usual symptoms of P. falciparum malaria, including fever, chills, headache, fatigue, anorexia, and mild diarrhea.
Primary endpoints for both studies were safety and tolerability. Secondary endpoints were reduction in parasitemia for the imatinib monotherapy study and both reduction in parasitemia and decline in pyrexia for the Im+SOC study. Safety and tolerability were assessed at protocol-specified time points and adverse events were classified as toxicities not normally associated with P. falciparum malaria, including edema, rashes, and severe diarrhea, etc. […] Attribution of imatinib to adverse events was assessed using a 5-point scale: not related, unlikely related, possibly related, probably related, and definitely related.
A mixed ANOVA was conducted to determine the effect of drug treatment on parasitemia and pyrexia. Post-hoc multi-comparison testing was used to determine which time points were statistically different. […] SOC treatment cohorts from each individual trial were analyzed separately. […]

From patent US20250025461A1, “TREATMENT OF SEVERE AND UNCOMPLICATED MALARIA” (PURDUE RESEARCH FOUDATION, priority 2021, published 2025) come the findings set out here.

Counter-ions that a name gives are not always drawn.

On to `Cc1ccc(NC(=O)c2ccc(CN3CCN(C)CC3)cc2)cc1Nc1nccc(-c2cccnc2)n1` [imatinib, imatinib mesylate], for which the “drug-related toxicity (analyses of blood parameters and body temperatures)” value (400 mg imatinib orally once a day for five days) is “no evidence of drug-related toxicity”. Moreover, under “imatinib alone, n=7”, the “participants who experienced a rise in parasitemia and had to be transferred to SOC” value is “two of the seven”. In addition, where the note is “p-value=0.7029”, the “apparent accelerated decrease in pyrexia vs SOC (mixed ANOVA, FIG. 1D)” value is reported as “did not achieve statistical significance”. Besides, the “number of parasitized cells per microliter of blood (FIG. 1A)” value (peripheral blood, before, during and after treatment, n=7) is given as “decrease”.
